# Measurements: patent US8884013B2, “Polymorphs of Dasatinib, preparation methods and pharmaceutical compositions thereof” (Nan Jing Cavendish Bio-Engineering Technology Co., Ltd., priority 2010, dated 2014)
# Test: Comparative test on stability: destruction experiment, related substances by HPLC
# Assay type: physicochemical
# Experimental: The methods of destruction experiment of the Polymorph I and II of this invention (hereinafter referred to as ‘Polymorph I’ and ‘Polymorph II’) contrasting with the Polymorph A of Dasatinib prepared by the method in CN200580011916.6 (hereinafter referred to as ‘916.6 Polymorph A’) and results of stability are followed:
# Oxidation destruction: 50 mg of sample weighted accurately was added into measuring flask of 100 mL, and 10 mL 30% H2O2 was added. After standing at room temperature for 2 hour, the mixture was diluted with mobile phase to scale and shook to be homogeneous, and determined by HPLC.
# (§1) Acid destruction: 50 mg of sample weighted accurately was added into measuring flask of 100 mL, and 10 mL 1 mol/L HCl solution was added. After standing at 40° C. for 1 hour, an equal amount of 1 mol/L NaOH solution was added for neutralization. Then the mixture was diluted with mobile phase to scale and shook to be homogeneous, and determined by HPLC.
# as §1, with “Alkali” for “Acid”, “NaOH” for “HCl”, “HCl” for “NaOH”
# Illumination destruction: 50 mg of sample weighted accurately was added into measuring flask of 100 mL, dissolved and diluted with mobile phase to be the solution containing 0.5 mg Dasatinib per milliliter. After standing under illumination of 4000 lx for 6 hour, the mixture was determined by HPLC.
# High temperature destruction: 50 mg of sample weighted accurately was added into measuring flask of 100 mL, dissolved and diluted with mobile phase to be the solution containing 0.5 mg Dasatinib per milliliter. After standing in homothermal water bath of 60° C. for 4 hour, the mixture was cooled and then determined by HPLC.
# Related Substances Determination
# HPLC conditions and system applicability: octadecylsilane bonded silica as the filler; 0.05 mol/L of potassium dihydrogen phosphate (adjusted to pH 2.5 by phosphoric acid, 0.2% triethylamine)-methanol (45:55) as the mobile phase; detection wavelength was 230 nm; the number of theoretical plates should be not less than 2000, calculated according to the peak of Dasatinib. The resolution of the peak of Dasatinib from the peaks of adjacent impurities should meet requirements.
# Determination method: sample was dissolved in mobile phase to be the solution containing 0.5 mg per milliliter. 20 μL of such solution was injected into liquid chromatograph, and chromatogram was recorded until the sixfold retention time of major component peak. If there were impurities peaks in the chromatogram of sample solution, total impurities and any single impurity were calculated by normalization method on the basis of peak area.
smiles,measurement,setting,value
"Cc1nc(Nc2ncc(C(=O)Nc3c(C)cccc3Cl)s2)cc(N2CCN(CCO)CC2)n1 [916.6 Polymorph A, N-(2-chloro-6-methylphenyl)-2-[[6-[4-(2-hydroxyethyl)-1-piperazinyl]-2-methyl-4-pyrimidyl]amino]-5-thiazolformamide, reference compound]",Stability by comparison with Polymorph I,,worse performance in stability
same,Impurity tR3.580,1 mol/L acid destruction,0.01%
same,Impurity tR4.106,1 mol/L acid destruction,0.02%
same,Impurity tR5.001,1 mol/L acid destruction,0.02%
same,Total impurities,"1 mol/L acid destruction (HCl, 40° C., 1 hour)",0.06%
same,Impurity tR4.107,1 mol/L alkali destruction,0.01%
same,Impurity tR5.007,1 mol/L alkali destruction,0.03%
same,Impurity tR5.351,1 mol/L alkali destruction,0.03%
same,Impurity tR8.943,1 mol/L alkali destruction,0.01%
same,Total impurities,"1 mol/L alkali destruction (NaOH, 40° C., 1 hour)",0.11%
same,Impurity tR4.135,before destruction,0.02%
same,Impurity tR5.092,before destruction,0.02%
same,Impurity tR5.523,before destruction,0.03%
same,Total impurities,before destruction,0.07%
same,Impurity tR4.118,high temperature destruction,0.02%
same,Impurity tR5.081,high temperature destruction,0.03%
same,Impurity tR5.502,high temperature destruction,0.03%
same,Total impurities,"high temperature destruction (60° C. water bath, 4 hour, in solution)",0.08%
same,Impurity tR2.456,illumination destruction,0.30%
same,Impurity tR3.732,illumination destruction,0.14%
same,Impurity tR4.589,illumination destruction,0.11%
same,Impurity tR5.088,illumination destruction,0.06%
same,Impurity tR5.503,illumination destruction,0.19%
same,Impurity tR10.095,illumination destruction,0.82%
same,Total impurities,"illumination destruction (4000 lx, 6 hour, in solution)",1.89%
same,Impurity tR4.123,oxidation destruction,0.01%
same,Impurity tR4.584,oxidation destruction,0.02%
same,Impurity tR5.089,oxidation destruction,0.02%
same,Impurity tR5.504,oxidation destruction,0.05%
same,Impurity tR9.450,oxidation destruction,2.30%
same,Total impurities,"oxidation destruction (30% H2O2, room temperature, 2 hour)",2.41%
